Measured values published in US20190127381A1, “SUBSTITUTED FUSED PYRIMIDINONE COMPOUNDS” (TORRENT PHARMACEUTICALS LIMITED, priority 2016, published 2019).

Legend:
[1] = biological target: T1, purified recombinant human PI3K enzyme δ (Homo sapiens, UniProt O00329); test: Inhibition of PI3-Kinase enzymatic activity (HTRF enzyme assay), δ; assay type: biochemical; conditions: 1 μM compound; PI3K δ 50 ng/well; PIP2 10 μM; ATP 200 μM; read-out: Percentage inhibition of PI3K activity, δ
T1 construct: purchased Invitrogen, USA
Description: (§1) Inhibition of PI3-Kinase enzymatic activity was determined using a homogeneous time-resolved fluorescence (HTRF) kit from Eurofins. 1 μM of Compounds of present invention were premixed with DMSO. The experiment was initiated by mixing 1.0% DMSO as vehicle/compounds with purified recombinant human PI3K enzyme {δ (50 ng/well); γ (100 ng/well)} (Invitrogen, USA) and substrate (PIP2, 10 μM) in the wells and incubation for 15 min at room temperature. There after ATP was added (δ at 200 μM, and γ at 50 μM) in to the wells containing reaction mixture, followed by re-incubation for 30 minutes at room temperature. Reaction was terminated by addition of a stopping solution and was further incubated for 4 hours at room temperature before reading using Envision multimode reader (Perkin Elmer). Percentage inhibition of PI3K activity was calculated by determining ratio of specific europium 665 nm energy transfer signal to reference 615 nm signals.

[2] = biological target: T2, purified recombinant human PI3K enzyme γ (Homo sapiens, UniProt P48736); test: Inhibition of PI3-Kinase enzymatic activity (HTRF enzyme assay), γ; assay type: biochemical; conditions: 1 μM compound; PI3K γ 100 ng/well; PIP2 10 μM; ATP 50 μM; read-out: Percentage inhibition of PI3K activity, γ
T2 construct: purchased Invitrogen, USA
Description: as §1

T2 sequence (P48736 whole entry): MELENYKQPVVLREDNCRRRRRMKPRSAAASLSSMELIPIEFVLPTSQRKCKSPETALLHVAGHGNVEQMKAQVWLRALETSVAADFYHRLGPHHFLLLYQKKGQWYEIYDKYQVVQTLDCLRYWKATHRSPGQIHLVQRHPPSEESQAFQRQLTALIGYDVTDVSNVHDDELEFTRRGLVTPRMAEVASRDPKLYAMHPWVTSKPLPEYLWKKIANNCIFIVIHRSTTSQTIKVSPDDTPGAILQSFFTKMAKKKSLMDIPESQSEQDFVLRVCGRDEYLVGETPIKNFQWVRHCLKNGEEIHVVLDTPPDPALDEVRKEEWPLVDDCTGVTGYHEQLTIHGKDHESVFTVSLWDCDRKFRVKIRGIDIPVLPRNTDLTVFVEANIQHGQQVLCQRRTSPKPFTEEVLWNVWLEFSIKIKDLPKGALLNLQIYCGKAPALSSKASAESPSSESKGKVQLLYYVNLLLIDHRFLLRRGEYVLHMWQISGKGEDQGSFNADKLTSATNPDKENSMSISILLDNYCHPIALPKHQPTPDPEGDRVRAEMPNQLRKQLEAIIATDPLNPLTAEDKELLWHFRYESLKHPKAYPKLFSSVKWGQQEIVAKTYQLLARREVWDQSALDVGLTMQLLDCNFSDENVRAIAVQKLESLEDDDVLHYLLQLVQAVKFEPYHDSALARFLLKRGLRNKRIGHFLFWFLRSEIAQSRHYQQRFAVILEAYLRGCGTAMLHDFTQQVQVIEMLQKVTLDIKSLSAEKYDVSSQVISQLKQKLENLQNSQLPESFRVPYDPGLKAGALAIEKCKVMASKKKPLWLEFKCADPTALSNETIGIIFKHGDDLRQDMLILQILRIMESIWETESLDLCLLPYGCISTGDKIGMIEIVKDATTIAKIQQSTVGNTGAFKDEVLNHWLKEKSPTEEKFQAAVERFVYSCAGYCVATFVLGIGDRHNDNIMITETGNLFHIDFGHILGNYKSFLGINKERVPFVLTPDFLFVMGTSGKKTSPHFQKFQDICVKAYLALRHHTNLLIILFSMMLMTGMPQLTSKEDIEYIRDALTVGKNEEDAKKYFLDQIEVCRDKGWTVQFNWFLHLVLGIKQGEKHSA
T1 sequence (O00329 whole entry): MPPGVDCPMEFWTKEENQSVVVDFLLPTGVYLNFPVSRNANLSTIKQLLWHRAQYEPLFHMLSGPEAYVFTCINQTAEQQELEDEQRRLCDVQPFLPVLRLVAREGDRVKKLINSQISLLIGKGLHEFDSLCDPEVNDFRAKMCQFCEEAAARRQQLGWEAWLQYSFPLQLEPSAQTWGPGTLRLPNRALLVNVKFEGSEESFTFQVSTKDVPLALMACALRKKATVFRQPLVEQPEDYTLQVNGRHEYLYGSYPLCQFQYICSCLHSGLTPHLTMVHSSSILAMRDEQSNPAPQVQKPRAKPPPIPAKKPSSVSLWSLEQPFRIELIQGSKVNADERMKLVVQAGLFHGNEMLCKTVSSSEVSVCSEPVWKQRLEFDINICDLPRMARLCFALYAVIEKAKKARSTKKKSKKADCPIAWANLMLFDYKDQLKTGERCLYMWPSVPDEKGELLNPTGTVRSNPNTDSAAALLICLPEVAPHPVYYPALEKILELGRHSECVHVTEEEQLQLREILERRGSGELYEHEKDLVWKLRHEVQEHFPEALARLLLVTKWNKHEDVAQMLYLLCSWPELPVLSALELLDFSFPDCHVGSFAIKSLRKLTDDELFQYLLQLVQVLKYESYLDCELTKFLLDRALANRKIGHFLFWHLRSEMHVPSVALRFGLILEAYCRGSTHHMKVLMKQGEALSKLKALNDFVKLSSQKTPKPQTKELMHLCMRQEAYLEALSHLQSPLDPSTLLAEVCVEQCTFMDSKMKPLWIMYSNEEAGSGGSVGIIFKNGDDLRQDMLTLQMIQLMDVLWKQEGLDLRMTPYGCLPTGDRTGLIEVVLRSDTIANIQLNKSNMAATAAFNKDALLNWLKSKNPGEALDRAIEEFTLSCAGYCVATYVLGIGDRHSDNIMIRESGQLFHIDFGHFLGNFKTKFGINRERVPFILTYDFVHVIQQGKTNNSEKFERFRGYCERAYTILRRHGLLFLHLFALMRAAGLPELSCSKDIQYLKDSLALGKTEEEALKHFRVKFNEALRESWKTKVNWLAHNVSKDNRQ
T1 sequence (P27986 whole entry partner): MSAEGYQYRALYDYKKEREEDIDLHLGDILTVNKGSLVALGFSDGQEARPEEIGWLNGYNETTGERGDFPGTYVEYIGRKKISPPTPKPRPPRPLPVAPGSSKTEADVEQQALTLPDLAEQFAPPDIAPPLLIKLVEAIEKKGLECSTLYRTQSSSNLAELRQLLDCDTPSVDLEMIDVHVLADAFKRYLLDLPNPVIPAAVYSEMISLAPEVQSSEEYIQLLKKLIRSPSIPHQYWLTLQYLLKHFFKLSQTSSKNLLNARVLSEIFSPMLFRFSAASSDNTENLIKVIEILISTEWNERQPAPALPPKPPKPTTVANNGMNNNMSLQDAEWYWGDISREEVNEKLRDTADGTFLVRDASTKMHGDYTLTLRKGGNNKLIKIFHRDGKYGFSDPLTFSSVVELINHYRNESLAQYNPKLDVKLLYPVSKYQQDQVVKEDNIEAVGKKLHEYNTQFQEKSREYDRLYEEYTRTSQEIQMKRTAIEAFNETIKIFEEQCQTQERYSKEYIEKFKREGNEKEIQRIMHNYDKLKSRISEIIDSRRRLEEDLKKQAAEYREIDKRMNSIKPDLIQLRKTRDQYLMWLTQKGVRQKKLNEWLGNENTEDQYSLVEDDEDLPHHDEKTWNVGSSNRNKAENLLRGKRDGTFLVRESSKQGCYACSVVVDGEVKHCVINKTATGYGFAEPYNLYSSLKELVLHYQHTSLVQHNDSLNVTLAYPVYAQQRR

Row | SMILES | inhibition at 1 µM [1] [%] | inhibition at 1 µM [2] [%]
1 | Cc1cccc(C2(n3c(Cn4nc(-c5ccc(O)c6c5CC(C)(C)O6)c5c(N)ncnc54)nc4cccc(C#CCO)c4c3=O)CC2)c1 [compound 31, 2-{[4-amino-3-(7-hydroxy-2,2-dimethyl-2,3-dihydro-1-benzofuran-4-yl)-1H-pyrazolo[3,4-d]pyrimidin-1-yl]methyl}-5-(3-hydroxyprop-1-yn-1-yl)-3-[1-(3-methylphenyl)cyclopropyl]quinazolin-4(3H)-one] | 80 to 100 | 60 to 80
2 | CC1(C)Cc2c(-c3nn(Cc4nc5cccc(-c6cccnc6)c5c(=O)n4C4(c5ccccc5)CC4)c4ncnc(N)c34)ccc(O)c2O1 [compound 16, 2-{[4-amino-3-(7-hydroxy-2,2-dimethyl-2,3-dihydro-1-benzofuran-4-yl)-1H-pyrazolo[3,4-d]pyrimidin-1-yl]methyl}-3-(1-phenylcyclopropyl)-5-(pyridin-3-yl)quinazolin-4(3H)-one] | 80 to 100 | 60 to 80
3 | CCn1cc(-c2cccc3nc([C@H](C)n4nc(-c5ccc(O)c6c5CC(C)(C)O6)c5c(N)ncnc54)n(-n4cccc4)c(=O)c23)cn1 [compound 99, 2-{(1S)-1-[4-amino-3-(7-hydroxy-2,2-dimethyl-2,3-dihydro-1-benzofuran-4-yl)-1H-pyrazolo[3,4-d]pyrimidin-1-yl]ethyl}-5-(1-ethyl-1H-pyrazol-4-yl)-3-(1H-pyrrol-1-yl)quinazolin-4(3H)-one] | 80 to 100 | 40 to 60
4 | Cc1ccc(C)n1-n1c(Cn2nc(-c3ccc(O)c4c3CC(C)(C)O4)c3c(N)ncnc32)nc2ccccc2c1=O [compound 88, 2-{[4-amino-3-(7-hydroxy-2,2-dimethyl-2,3-dihydro-1-benzofuran-4-yl)-1H-pyrazolo[3,4-d]pyrimidin-1-yl]methyl}-3-(2,5-dimethyl-1H-pyrrol-1-yl)quinazolin-4(3H)-one] | 80 to 100 | 80 to 100
5 | CC1(C)Cc2c(-c3nn(Cc4nc5cccc(Cl)c5c(=O)n4C4(c5ccccc5)CC4)c4ncnc(N)c34)ccc(O)c2O1 [compound 5, 2-{[4-amino-3-(7-hydroxy-2,2-dimethyl-2,3-dihydro-1-benzofuran-4-yl)-1H-pyrazolo[3,4-d]pyrimidin-1-yl]methyl}-5-chloro-3-(1-phenylcyclopropyl)quinazolin-4(3H)-one] | 80 to 100 | 80 to 100
6 | CC1(C)Cc2c(-c3nn(Cc4nc5cccc(F)c5c(=O)n4C4(c5ccccc5)CC4)c4ncnc(N)c34)ccc(O)c2O1 [compound 26, 2-{[4-amino-3-(7-hydroxy-2,2-dimethyl-2,3-dihydro-1-benzofuran-4-yl)-1H-pyrazolo[3,4-d]pyrimidin-1-yl]methyl}-5-fluoro-3-(1-phenylcyclopropyl)quinazolin-4(3H)-one] | 80 to 100 | 40 to 60
7 | Cc1ccc(C)n1-n1c(Cn2nc(-c3ccc(O)c4c3CCC4)c3c(N)ncnc32)nc2cccc(-c3cnn(C)c3)c2c1=O [compound 93, 2-{[4-amino-3-(7-hydroxy-2,3-dihydro-1H-inden-4-yl)-1H-pyrazolo[3,4-d]pyrimidin-1-yl]methyl}-3-(2,5-dimethyl-1H-pyrrol-1-yl)-5-(1-methyl-1H-pyrazol-4-yl)quinazolin-4(3H)-one] | 80 to 100 | 80 to 100
8 | Cc1ccc(C)n1-n1c(Cn2nc(-c3ccc(O)c4c3CC(C)(C)O4)c3c(N)ncnc32)nc2cccc(C#CCN3CCNC(=O)C3)c2c1=O [compound 68, 2-{[4-amino-3-(7-hydroxy-2,2-dimethyl-2,3-dihydro-1-benzofuran-4-yl)-1H-pyrazolo[3,4-d]pyrimidin-1-yl]methyl}-3-(2,5-dimethyl-1H-pyrrol-1-yl)-5-[3-(3-oxopiperazin-1-yl)prop-1-yn-1-yl]quinazolin-4(3H)-one] | 80 to 100 | 80 to 100

Next, values leading:

Row | inhibition at 1 µM [1] [%] | inhibition at 1 µM [2] [%] | SMILES
9 | 80 to 100 | 80 to 100 | C#Cc1cccc2nc(Cn3nc(-c4ccc(O)c5c4CC(C)(C)O5)c4c(N)ncnc43)n(-n3cccc3)c(=O)c12 [compound 20, 2-{[4-amino-3-(7-hydroxy-2,2-dimethyl-2,3-dihydro-1-benzofuran-4-yl)-1H-pyrazolo[3,4-d]pyrimidin-1-yl]methyl}-5-ethynyl-3-(1H-pyrrol-1-yl)quinazolin-4(3H)-one]
10 | 80 to 100 | 80 to 100 | Cc1cccc2nc(C(C)n3nc(-c4ccc(O)c5c4CC(C)(C)O5)c4c(N)ncnc43)n(-n3cccc3)c(=O)c12 (racemic) [compound 96, 2-{(1RS)-1-[4-amino-3-(7-hydroxy-2,2-dimethyl-2,3-dihydro-1-benzofuran-4-yl)-1H-pyrazolo[3,4-d]pyrimidin-1-yl]ethyl}-5-methyl-3-(1H-pyrrol-1-yl)quinazolin-4(3H)-one]
11 | 80 to 100 | 80 to 100 | Cc1ccc(-c2cccc3nc(Cn4nc(-c5ccc(O)c6c5CC(C)(C)O6)c5c(N)ncnc54)n(-n4cccc4)c(=O)c23)o1 [compound 15, 2-{[4-amino-3-(7-hydroxy-2,2-dimethyl-2,3-dihydro-1-benzofuran-4-yl)-1H-pyrazolo[3,4-d]pyrimidin-1-yl]methyl}-5-(5-methylfuran-2-yl)-3-(1H-pyrrol-1-yl)quinazolin-4(3H)-one]
12 | 80 to 100 | 80 to 100 | CC1(C)Cc2c(-c3nn(Cc4nc5cccc(C#CCO)c5c(=O)n4-n4cccc4)c4ncnc(N)c34)ccc(O)c2O1 [compound 19, 2-{[4-amino-3-(7-hydroxy-2,2-dimethyl-2,3-dihydro-1-benzofuran-4-yl)-1H-pyrazolo[3,4-d]pyrimidin-1-yl]methyl}-5-(3-hydroxyprop-1-yn-1-yl)-3-(1H-pyrrol-1-yl)quinazolin-4(3H)-one]
13 | 80 to 100 | 80 to 100 | CCn1cc(-c2cccc3nc(Cn4nc(-c5ccc(O)c6c5CC(C)(C)O6)c5c(N)ncnc54)n(-n4c(C)ccc4C)c(=O)c23)cn1 [compound 85, 2-{[4-amino-3-(7-hydroxy-2,2-dimethyl-2,3-dihydro-1-benzofuran-4-yl)-1H-pyrazolo[3,4-d]pyrimidin-1-yl]methyl}-3-(2,5-dimethyl-1H-pyrrol-1-yl)-5-(1-ethyl-1H-pyrazol-4-yl)quinazolin-4(3H)-one]
14 | 80 to 100 | 80 to 100 | CC1(C)Cc2c(-c3nn(Cc4nc5cccc(C#CC6CC6)c5c(=O)n4-n4cccc4)c4ncnc(N)c34)ccc(O)c2O1 [compound 48, 2-{[4-amino-3-(7-hydroxy-2,2-dimethyl-2,3-dihydro-1-benzofuran-4-yl)-1H-pyrazolo[3,4-d]pyrimidin-1-yl]methyl}-5-(cyclopropylethynyl)-3-(1H-pyrrol-1-yl)quinazolin-4(3H)-one]
15 | 80 to 100 | 80 to 100 | CC1(C)Cc2c(-c3nn(Cc4nc5cccc(C#CCNC(=O)C6CC6)c5c(=O)n4-n4cccc4)c4ncnc(N)c34)ccc(O)c2O1 [compound 29, N-{3-[2-{[4-amino-3-(7-hydroxy-2,2-dimethyl-2,3-dihydro-1-benzofuran-4-yl)-1H-pyrazolo[3,4-d]pyrimidin-1-yl]methyl}-4-oxo-3-(1H-pyrrol-1-yl)-3,4-dihydroquinazolin-5-yl]prop-2-yn-1-yl}cyclopropanecarboxamide]
